Results from PubChem BioAssay AID328 (DTP/NCI, 2004).
Toxic doses and inconclusive results are not listed.

Tested on: BDF1 mice, P388 leukemia ip, median survival T/C
Assay: NCI In Vivo Anticancer Drug Screen. Data for tumor model P388 Leukemia (intraperitoneal) in B6D2F1 (BDF1) mice
Settings: endpoint: median survival time, higher = longer survival
Method in brief: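 Antitumour effect was judged in vivo: survival in drug-treated mice, normalised to that of vehicle-dosed controls, gives the reported T/C.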

Compound: CC1(C)N=C(N)N=C(N)N1c1ccc2ccccc2c1
- T/C (dose: 12.5 mg/kg/injection, schedule: Q01DX009 (ip), vehicle: saline): 120 % of control
- T/C (dose: 50.0 mg/kg/injection, schedule: Q01DX009 (ip), vehicle: saline): 160 % of control
- T/C (dose: 50.0 mg/kg/injection, schedule: Q04DX003 (ip), vehicle: saline): 100 % of control

Compound: CC(=O)OC(C(=O)NCc1ccccc1)C(OC(C)=O)C(C)OS(C)(=O)=O (configuration not stated)
- T/C (dose: 50.0 mg/kg/injection, schedule: Q01DX009 (ip), vehicle: saline with Tween-80): 98 % of control
- T/C (dose: 100.0 mg/kg/injection, schedule: Q01DX009 (ip), vehicle: saline with Tween-80): 106 % of control
- T/C (dose: 200.0 mg/kg/injection, schedule: Q01DX009 (ip), vehicle: saline with Tween-80): 89 % of control

Compound: N#Cc1cnn2c(=O)[nH]cnc12
- T/C (dose: 50.0 mg/kg/injection, schedule: Q01DX009 (ip), vehicle: other): 100 % of control
- T/C (dose: 100.0 mg/kg/injection, schedule: Q01DX009 (ip), vehicle: other): 100 % of control
- T/C (dose: 100.0 mg/kg/injection, schedule: Q04DX003 (ip), vehicle: saline): 100 % of control
- T/C (dose: 200.0 mg/kg/injection, schedule: Q01DX009 (ip), vehicle: other): 100 % of control
- T/C (dose: 200.0 mg/kg/injection, schedule: Q04DX003 (ip), vehicle: saline): 100 % of control
- T/C (dose: 400.0 mg/kg/injection, schedule: Q04DX003 (ip), vehicle: saline): 118 % of control

Compound: COc1ccc(OC)c(/C=N/N=C/c2cc(OC)ccc2OC)c1
- T/C (dose: 100.0 mg/kg/injection, schedule: Q01DX001 (ip), vehicle: saline with Tween-80): 104 % of control
- T/C (dose: 200.0 mg/kg/injection, schedule: Q01DX001 (ip), vehicle: saline with Tween-80): 100 % of control
- T/C (dose: 400.0 mg/kg/injection, schedule: Q01DX001 (ip), vehicle: saline with Tween-80): 104 % of control

Compound: C=C(Br)COCC
- T/C (dose: 5.78 mg/kg/injection, schedule: Q01DX001 (ip), vehicle: saline): 95 % of control
- T/C (dose: 11.56 mg/kg/injection, schedule: Q01DX001 (ip), vehicle: saline): 113 % of control
- T/C (dose: 13.75 mg/kg/injection, schedule: Q04DX003 (ip), vehicle: saline): 95 % of control
- T/C (dose: 23.12 mg/kg/injection, schedule: Q01DX001 (ip), vehicle: saline): 104 % of control
- T/C (dose: 27.5 mg/kg/injection, schedule: Q04DX003 (ip), vehicle: saline): 109 % of control
- T/C (dose: 35.0 mg/kg/injection, schedule: Q01DX009 (ip), vehicle: saline): 100 % of control
- T/C (dose: 46.25 mg/kg/injection, schedule: Q01DX001 (ip), vehicle: saline): 100 % of control
- T/C (dose: 55.0 mg/kg/injection, schedule: Q01DX009 (ip), vehicle: saline): 109 % of control
- T/C (dose: 55.0 mg/kg/injection, schedule: Q04DX003 (ip), vehicle: saline): 90 % of control
- T/C (dose: 80.0 mg/kg/injection, schedule: Q04DX003 (ip), vehicle: saline): 110 % of control
- T/C (dose: 92.5 mg/kg/injection, schedule: Q01DX001 (ip), vehicle: saline): 113 % of control
- T/C (dose: 125.0 mg/kg/injection, schedule: Q04DX003 (ip), vehicle: saline): 100 % of control
- T/C (dose: 185.0 mg/kg/injection, schedule: Q04DX003 (ip), vehicle: saline): 100 % of control

Compound: COc1ccc2nc(C)c(COC(C)=O)cc2c1
- T/C (dose: 25.0 mg/kg/injection, schedule: Q01DX009 (ip), vehicle: saline + alcohol): 93 % of control
- T/C (dose: 50.0 mg/kg/injection, schedule: Q01DX009 (ip), vehicle: saline + alcohol): 111 % of control
- T/C (dose: 50.0 mg/kg/injection, schedule: Q04DX003 (ip), vehicle: saline + alcohol): 109 % of control
- T/C (dose: 100.0 mg/kg/injection, schedule: Q01DX009 (ip), vehicle: saline + alcohol): 101 % of control
- T/C (dose: 100.0 mg/kg/injection, schedule: Q04DX003 (ip), vehicle: saline + alcohol): 109 % of control
- T/C (dose: 200.0 mg/kg/injection, schedule: Q01DX009 (ip), vehicle: saline + alcohol): 90 % of control
- T/C (dose: 200.0 mg/kg/injection, schedule: Q04DX003 (ip), vehicle: saline + alcohol): 97 % of control
- T/C (dose: 400.0 mg/kg/injection, schedule: Q01DX009 (ip), vehicle: saline + alcohol): 109 % of control
- T/C (dose: 400.0 mg/kg/injection, schedule: Q04DX003 (ip), vehicle: saline + alcohol): 110 % of control
